In US10538475B2, “Amphiphilic cyclobutenes and cylobutanes” (priority 2012, dated 2020):
Where two headings read alike, the source gives them in different places.

Tests used:
M. tb (H37Rv) = assay: MIC by 96-well microplate twofold dilution, M. tb H37Rv; assay type: cell-based, Mycobacterium tuberculosis; conditions: minimal media, 5-7 weeks
M. smeg (mc2155) [1] = assay: MIC by 96-well microplate twofold dilution, M. smeg; assay type: cell-based; conditions: for MIC: M. smeg mc2155, minimal media, 3-4 day; for fold differences between MICs for M. smeg and M. tb: M. smeg vs M. tb
M. tb (CDC1551) = assay: MIC by 96-well microplate twofold dilution, M. tb CDC1551; assay type: cell-based, Mycobacterium tuberculosis; conditions: minimal media, 5-7 weeks
RAW 264.7 macrophages = conditions: cited from earlier work
[2] = 1D 1H NMR aqueous stability and concentration dependent micelle formation; assay type: physicochemical; conditions: 100 μM, 500 μM, 750 μM, and 1000 μM; FIG. 2
Protocol: One-dimensional (1D)^1H-NMR spectroscopy was used to verify the chemical purity, aqueous stability, and concentration dependent micelle formation of eleven fatty acid analogs. Each compound was dissolved in deuterated dimethyl sulfoxide (DMSO-d6) to obtain a stock concentration of 20 mM. Four different concentrations were prepared from the stock solutions for NMR analysis: 1.00 mM, 750 μM, 500 μM, 100 μM. All NMR samples consisted of 600 μL of a deuterated 50 mM potassium phosphate buffer at pH 7.2 with 50 μM of 3 (trimethylsilyl) propionic-2,2,3,3-d4 acid sodium salt (TMSP). Each 600 μL NMR sample contains 30 μL (5%) of DMSO-d6 and was transferred to a 5 mm NMR tube for analysis.
A Bruker Avance DRX 500-MHz spectrometer equipped with a 5 mm triple-resonance cryoprobe (^1H, ^13C, ^15N) with a z-axis gradient was utilized for all 1D ^1H NMR experiments. Acquisition of NMR spectra was automated using a BACS-120 sample changer and Icon NMR software. All spectra were acquired at 298.15 K with 16 dummy scans, 64 scans, 32K data points, a spectral width of 5482.46 Hz, and a relaxation delay of 1.5 s. The NMR spectra were processed and analyzed using ACD/1D NMR Manager (Advanced Chemistry Development). The resulting 1D ^1H NMR spectra were visually inspected for evidence of micelle formation (peak broadening), or chemical instability/impurities (additional peaks). […]

M. smeg (mc2155) [3] = conditions: M. tb vs M. smeg; cited from earlier work
[4] = highest concentration tested 256 μg/ml
[5] = highest concentration tested 1024 μg/ml
[6] = Mycobacterium tuberculosis, H37RV, highest concentration tested 256 μg/ml, read-out: MIC
[7] = highest concentration tested 1024 μg/ml, read-out: MIC
[8] = Mycobacterium tuberculosis, highest concentration tested 256 μg/ml, read-out: MIC

Compound | MIC (M. tb (H37Rv); [4]) [µg/mL] | MIC (M. smeg (mc2155) [1]; [5]) [µg/mL] | MIC (M. smeg (mc2155) [1]; read-out: MIC) [µM] | fold differences between MICs for M. smeg and M. tb (M. smeg (mc2155) [1]) | MIC (M. tb (CDC1551); [4]) [µg/mL] | MIC (M. tb (H37Rv); read-out: MIC) [µM] | MIC (M. tb (CDC1551); read-out: MIC) [µM] | also measured
2-(Octanoic acid, 8-yl) 3-octylcyclobutanol and 3-(Octanoic acid, 8-yl) 2-octylcyclobutanol [Compound 4] | 2 | 256 | 784 | five to ten | 8 | – | – | –
N[C@@H]1CONC1=O [DCS, D-cycloserine, reference compound] | 12.5 | 75 | 313 | – | 12.5 | 122 | 122 | –
CCCCCCCC/C=C\CCCCCCCC(=O)O [oleate, oleic acid] | – | – | – | – | – | – | – | concentrations displaying some toxicity to this cell line (RAW 264.7 macrophages): ≥ 200 µM
O=C(O)CCCCCCCC1CC(O)C1 (stereo not shown) [Compound 11, 3-(Octanoic acid)cyclobutanol] | 128 | 64 | 302 | – | 64 | 597 | 299 | MIC (M. smeg (mc2155) [1]): ~313 µM
O=C(O)CCCCCCCC1CC(=O)C1 [Compound 10, 3-(Octanoic acid, 8-yl)cyclobutanone] | 256 | 128 | 603 | – | 128 | – | 603 | MIC (M. tb (H37Rv)): 1,206 μM
2-(Octanoic acid, 8-yl) 3-octylcyclobutanone and 3-(octanoic acid, 8-yl) 2-octylcyclobutanone [Compound 3] | 32 | 64 | 197 | – | 64 | 99 | 197 | MIC (M. smeg (mc2155) [1]): ~313 µM
CCCCCCCCC1=C(CCCCCCCC(=O)O)CC1 [Compound 6, 1-(Octanoic acid, 8-yl)-2-octylcyclobutene] | 16 | 256 | 830 | five to ten | 128 | 52 | 415 | –
CCCCCCCCCC(=O)O [Decanoic acid (DA), Decanoic acid, reference compound] | – | – | 752 | – | – | – | – | MIC (M. tb (H37Rv); [6]): 32 µg/mL; MIC (M. tb (H37Rv); Mycobacterium tuberculosis, H37RV, read-out: MIC): 188 µM; MIC (M. smeg (mc2155) [1]; [7]): 128 µg/mL; MIC (M. tb (CDC1551); [8]): 32 µg/mL; MIC (M. tb (CDC1551); Mycobacterium tuberculosis, read-out: MIC): 188 µM
2-Chloro-4-(octanoic acid, 8-yl) 3-octylcyclobutanone-; 2-Chloro-3-(octanoic acid, 8-yl) 4-octylcyclobutanone [Compound 5] | 16 | 256 | 713 | – | 256 | 45 | 713 | –
O=C(O)CCCCCCCC1CCC1 [Compound 9, 8-Cyclobutyloctanoic acid] | – | – | 645 | five to ten | – | – | – | MIC (M. tb (H37Rv); [6]): 4 µg/mL; MIC (M. smeg (mc2155) [1]; [7]): 128 µg/mL; MIC (M. tb (CDC1551); [8]): 4 µg/mL
O=C(O)CCCCCCCC1C=CC1 (stereo not shown) [Compound 8, 8-(2-Cyclobuten-1-yl)-octanoic acid] | – | – | 326 | five to ten | – | – | – | MIC (M. tb (H37Rv); [6]): 4 µg/mL; MIC (M. smeg (mc2155) [1]; [7]): 64 µg/mL; micelle formation (peak broadening relative to TMSP) [2]: No micelle formation; MIC (M. tb (CDC1551); [8]): 4 µg/mL
CCCCCCCC[C@H]1CC[C@H]1CCCCCCCC(=O)O (relative stereo) [Compound 2, cis-9,10-Ethanooctadecanoic acid] | 16 | 64 | 206 | five to ten | 8 | 52 | – | MIC (M. smeg (mc2155) [1]): ~313 µM
NNC(=O)c1ccncc1 [Isoniazid] | – | – | – | – | – | – | – | fold more potent inhibition of M. tb compared with M. smeg (M. smeg (mc2155) [3]): 100 fold
